Values joined by “and” are separate entries in the source; they are usually repeats but may differ in a detail not shown here. Equal entries are not always repeated.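 Following 48 hours of exposure in 96-well plates, responses at five concentrations were used to interpolate endpoints linearly. At the GI50, growth is halved. Definition used: TGI = concentration required for complete inhibition of growth.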
Key:
Assay in all cases: growth of human tumour cells (NCI), 48 h
[1] = system: NCI-H23 lung
[2] = system: RPMI-8226 leukemia
[3] = system: EKVX NSCLC
[4] = system: NCI-H226 lung
[5] = system: DU-145 prostate
[6] = system: MALME-3M melanoma
[7] = system: KM12 colon
[8] = system: BT-549 breast
[9] = system: SN12C renal
[10] = system: HOP-92 NSCLC

SMILES	GI50 [1]	TGI [1]	GI50 [2]	TGI [2]	GI50 [3]	GI50 [4]	TGI [4]	GI50 [5]	TGI [5]	GI50 [6]	TGI [6]	GI50 [7]	TGI [7]	GI50 [8]	TGI [8]	GI50 [9]	TGI [9]	GI50 [10]	TGI [10]	TGI [3]
O=C(Nc1cnc(C(F)(F)F)cn1)c1cc(Cl)ccc1O	0.257 µM	1.22 µM	0.273 µM	2.75 µM	0.228 µM	0.322 µM	23.9 µM	0.348 µM	> 100 µM	0.197 µM	0.565 µM	0.343 µM	16.2 µM	0.255 µM	0.835 µM	0.326 µM	52.4 µM	0.188 µM	0.621 µM	–
O=S(=O)(NC1=NCCN1C(=S)SN1CCn2c1nsc2=S)c1cccc(OC(F)(F)F)c1	12.8 µM	32.1 µM	2.06 µM	4.44 µM	44 µM	16.2 µM	31.7 µM	14.1 µM	29.6 µM	6.75 µM	23.3 µM	10.3 µM	24.5 µM	25.7 µM	> 100 µM	11.3 µM	26.7 µM	4.45 µM	20.4 µM	> 100 µM
CCN(CC)CCCC(C)Nc1c(-c2ccccc2)cnc2cc(Cl)ccc12 (stereo unspecified)	11 µM	28.5 µM	3.49 µM	17.1 µM	7.58 µM	15.7 µM	31.6 µM	13 µM	31.3 µM	1.93 µM	4.62 µM	4.19 µM	16 µM	8.76 µM	22.3 µM	8.9 µM	36.5 µM	4.65 µM	23.7 µM	40.7 µM
Nc1n[nH]c(N)c1N=Nc1ccc(O)cc1	19.1 µM	62.3 µM	14.4 µM	54.3 µM	22 µM	17.7 µM	67.5 µM	17 µM	62.5 µM	24.6 µM	60.3 µM	17.2 µM	74.1 µM	14 µM	63.5 µM	23.3 µM	> 100 µM	18.2 µM	67.8 µM	67.8 µM
Cc1cccc2c(Nc3ccc(NS(C)(=O)=O)cc3)c3ccc([N+](=O)[O-])cc3nc12	1.25 µM	4.31 µM	1.09 µM	7.56 µM	–	0.755 µM	4.08 µM	0.253 µM	4.4 µM	1.21 µM	3.43 µM	0.694 µM	2.97 µM	1.75 µM	7.47 µM	0.486 µM	7.58 µM	0.345 µM	2.47 µM	–
N#CC(C#N)=C(N)/C(C#N)=C/c1ccc2[nH]ccc2c1	–	> 100 µM	–	> 100 µM	–	–	> 100 µM	–	> 100 µM	–	> 100 µM	–	> 100 µM	–	> 100 µM	–	> 100 µM	–	> 100 µM	> 100 µM
NC(=O)c1cccc(-c2cc(C(N)=O)ccc2Cl)c1	9.21 µM	> 100 µM	0.318 µM	3.11 µM	4.37 µM	13.4 µM	> 100 µM	3.78 µM	> 100 µM	3.98 µM	> 100 µM	1.88 µM	> 100 µM	6.82 µM	> 100 µM	4.85 µM	88.3 µM	–	6.99 µM	> 100 µM
CC1=C(Cl)C[C@@H](/C(C)=C\Cl)O[C@@]1(O)C(Br)Br	–	> 100 µM	–	65.8 µM	–	–	–	–	49.9 µM	–	79.8 µM	–	> 100 µM	–	79.6 µM	–	37.2 µM	–	53.2 µM	80.3 µM
Cc1ccc(N=C2SC(c3ccc(C)cc3)(c3ccc(C)cc3)c3ccccc32)cc1	–	> 100 µM	–	> 100 µM	–	–	> 100 µM	–	> 100 µM	–	> 100 µM	–	> 100 µM	–	> 100 µM	–	> 100 µM	–	> 100 µM	> 100 µM
CC1C2CC(C/C2=N/O)C1(C)C (stereo unspecified)	–	> 100 µM	–	–	–	–	> 100 µM	–	> 100 µM	–	> 100 µM	–	> 100 µM	–	> 100 µM	–	> 100 µM	–	> 100 µM	> 100 µM
COc1ccc2c(c1)/C(=C\c1c[nH]c3ccc(OC)cc13)C(=O)N2	4.46 µM	21 µM	2.39 µM	8.89 µM	3.01 µM	4.59 µM	25.6 µM	4.72 µM	16.4 µM	8.52 µM	22.9 µM	0.32 µM	10.8 µM	2.31 µM	9.1 µM	3.07 µM	12.6 µM	1.48 µM	6.55 µM	15.4 µM
C=CCn1c(=O)c2cnc(Nc3ccc(N4CCN(C)CC4)cc3)nc2n1-c1cccc(C(C)(C)O)n1	0.218 µM and 0.295 µM	1.27 µM and > 4.86 µM	1.65 µM and 1.52 µM	5.61 µM and 6.22 µM	0.97 µM and 1.36 µM	0.456 µM and 1.9 µM	5.95 µM and > 7.68 µM	0.872 µM and 0.678 µM	18 µM and > 10 µM	1.73 µM and 0.593 µM	18.4 µM and > 10 µM	0.293 µM and 0.364 µM	1.53 µM and 3.07 µM	0.437 µM and 0.383 µM	6.01 µM and > 6.27 µM	0.855 µM and 0.479 µM	> 100 µM	0.131 µM and 0.221 µM	3.92 µM and 2.38 µM	30.1 µM and > 10 µM
CSc1nc(C#N)c(N)n1C	–	> 100 µM	–	> 100 µM	–	–	> 100 µM	–	> 100 µM	–	> 100 µM	–	> 100 µM	–	> 100 µM	–	> 100 µM	–	> 100 µM	> 100 µM
COc1cc(C2CC(=O)Nc3c2cc(Br)c2ccccc32)cc(Br)c1OC (stereo unspecified)	4.37 µM	> 100 µM	3.71 µM	> 100 µM	–	2.34 µM	5.57 µM	6.38 µM	> 100 µM	1.81 µM	67.2 µM	–	–	3.47 µM	> 71 µM	2.54 µM	> 100 µM	1 µM	7.07 µM	–
C[C@H]1c2ccccc2CN1CCCOc1cc2c(cc1OCC1CC1)C1(CCCC1)C(N)=N2	3.26 µM	10.3 µM	1.01 µM	3.13 µM	4.33 µM	1.02 µM	2.9 µM	2.66 µM	8.63 µM	0.888 µM	1.68 µM	2.03 µM	7.69 µM	4.8 µM	10.8 µM	2.59 µM	9.18 µM	0.633 µM	3.54 µM	10.8 µM
Cc1c2ccncc2c(C)c2c1c1cc(CO)ccc1n2C	0.429 µM	2.66 µM	0.425 µM	2.28 µM	0.719 µM	–	–	0.653 µM	6.02 µM	0.622 µM	2.51 µM	0.492 µM	20 µM	1.73 µM	7.84 µM	0.442 µM	5.35 µM	0.636 µM	4.87 µM	5.98 µM
Nc1ncccc1-c1nc2ccc(-c3ccccc3)nc2n1-c1ccc(C2(N)CCC2)cc1	5.19 µM	21.5 µM	1.74 µM	4.78 µM	1.92 µM	5.02 µM	23.7 µM	2.98 µM	15 µM	0.197 µM	1.84 µM	1.78 µM	6.93 µM	0.344 µM	5.14 µM	2.29 µM	13.5 µM	0.0644 µM	1.2 µM	16.2 µM
COC(=O)/C(=C\c1ccco1)P(=O)(OC)OC	–	> 100 µM	–	> 100 µM	–	–	> 100 µM	–	> 100 µM	–	59 µM	–	> 100 µM	–	> 100 µM	–	> 100 µM	–	91.9 µM	> 100 µM
C[C@@H]1COCCN1c1cc(-c2ccnn2C)c2ccnc(-c3ccn[nH]3)c2n1	0.0303 µM and 0.075 µM	–	0.177 µM and 0.202 µM	3.01 µM and 5.4 µM	0.205 µM and 0.349 µM	0.241 µM and 0.474 µM	–	0.0992 µM and 0.202 µM	> 100 µM	0.179 µM and 0.273 µM	1.52 µM and 3.7 µM	0.176 µM and 0.171 µM	> 100 µM	0.0481 µM and 0.0691 µM	0.876 µM and 1.76 µM	0.184 µM and 0.314 µM	> 100 µM	0.0815 µM and 0.175 µM	0.651 µM and 3.08 µM	8.11 µM and > 28.6 µM
Cc1nn(C(=O)c2ccncc2)c2c1C(c1cccc([N+](=O)[O-])c1)SC(N)=N2 (stereo unspecified)	–	> 10 µM	–	> 10 µM	–	–	> 10 µM	–	> 10 µM	–	> 10 µM	–	> 10 µM	–	> 10 µM	–	> 10 µM	–	> 10 µM	> 10 µM
CCN(C(=O)CN1CCN(c2cc3c(cc2F)c(=O)c(C(=O)O)cn3CC)CC1)c1nc(-c2ccccc2)cs1	0.315 µM	> 100 µM	0.344 µM	> 100 µM	0.372 µM	0.477 µM	> 100 µM	0.453 µM	> 100 µM	0.214 µM	0.66 µM	0.393 µM	> 100 µM	0.344 µM	> 100 µM	0.402 µM	> 100 µM	0.23 µM	0.585 µM	> 100 µM
Clc1ccccc1NN(Cc1ccncc1)c1ccccc1Cl	–	29.2 µM	–	42.2 µM	–	–	39.3 µM	–	34.8 µM	–	35.9 µM	–	36 µM	–	33.7 µM	–	26.5 µM	–	18.2 µM	30.1 µM
CCOC(=O)c1c(NCc2ccccc2)n(-c2ccccc2)c(=S)n(-c2ccccc2)c1=O	–	> 100 µM	–	> 100 µM	–	–	> 100 µM	–	> 100 µM	–	> 100 µM	–	> 100 µM	–	> 100 µM	–	> 100 µM	–	> 100 µM	–
CSCCCNC(=O)c1csc(-c2csc(CCNC(=O)CNC(=O)CNC(=O)CNC(=O)OC(C)(C)C)n2)n1	–	> 100 µM	–	–	–	–	> 100 µM	–	> 100 µM	–	> 100 µM	–	> 100 µM	–	> 100 µM	–	> 100 µM	–	> 100 µM	> 100 µM
NNc1c2ccccc2nc2ccccc12	1.37 µM	33 µM	0.558 µM	17.4 µM	1.89 µM	4.26 µM	43 µM	10.9 µM	> 100 µM	5.03 µM	36.1 µM	4.55 µM	27.8 µM	4.15 µM	36.8 µM	6.44 µM	56.7 µM	5.19 µM	43.6 µM	26.8 µM
C=C1C(=O)O[C@H]2[C@H]1CC/C(CNC(=O)/C=C/c1ccccc1)=C\CC[C@@]1(C)O[C@@H]21	1.73 µM	3.9 µM	0.71 µM	3.9 µM	1.65 µM	2.5 µM	6.59 µM	0.603 µM	1.88 µM	1.45 µM	3.29 µM	4.94 µM	16.7 µM	1.46 µM	3.47 µM	1.15 µM	2.79 µM	1.46 µM	3.38 µM	4.51 µM
O=NN(CCCl)C(=O)NC1CCC(=O)NC1=O (stereo unspecified)	–	842 µM	–	617 µM	–	–	583 µM	–	1060 µM	–	481 µM	–	578 µM	–	593 µM	–	–	–	377 µM	515 µM
Oc1c(Cl)cc(Cl)c2cccnc12	4.2 µM	42.5 µM	4.34 µM	> 100 µM	2.9 µM	3.15 µM	14.7 µM	4.51 µM	45.7 µM	2.78 µM	13.1 µM	4.58 µM	16.7 µM	4.12 µM	52.7 µM	3.39 µM	51.8 µM	2.8 µM	26.3 µM	15.2 µM
Cn1nnc2c(C(N)=O)ncn2c1=O	–	> 100 µM	–	> 100 µM	–	–	> 100 µM	–	> 100 µM	–	> 100 µM	–	> 100 µM	–	> 100 µM	–	> 100 µM	–	> 100 µM	> 100 µM
Cc1ccc(Sc2oc(-c3ccc(C)cc3)nc2[P+](c2ccccc2)(c2ccccc2)c2ccccc2)cc1	0.298 µM	1.02 µM	0.308 µM	1.35 µM	0.296 µM	–	–	0.416 µM	1.48 µM	0.241 µM	0.813 µM	0.338 µM	1.3 µM	0.365 µM	1.37 µM	0.311 µM	1.21 µM	0.178 µM	0.722 µM	1.26 µM

Source: PubChem BioAssay (NCI)
